Assay results as given in patent US20130295055A1 (priority 2011, published 2013).
Read-outs that look alike come from different tables or passages of the source.

Assays:
Assay type in all cases: cell-based
[1] = test system: Avian influenza virus AIV0028 (H9N2); settings: Soft Water (Distilled Water)
Standard strain Listeria = test: Sterilization effectiveness on Listeria (number of bacteria over time)
Standard strain E. coli = test: Sterilization effectiveness on E. coli (number of bacteria over time)
[2] = test system: Salmonella typhimurium ATCC 19585 and Salmonella typhimurium ATCC 43174; test: Sterilization effectiveness on Salmonella (number of bacteria over time)
Procedure: Inhibitory effect was evaluated by measuring total numbers of bacteria over time, and the number of bacteria was expressed as log10 CFU/ml.
Standard strains Salmonella typhimurium ATCC 19585 and Salmonella typhimurium ATCC 43174 were purchased from American Type culture collection, and were incubated in Rappaport-Vassiliadis Soya Peptone Broth (CM0866, Oxoid, the United Kingdom) in a bacterial incubator at 37° C. for 24 hours. Total number of bacteria was measured by diluting strains at stationary phase to 6 to 7 log(cfu/mL).
0.2% peptone water was used as a diluent, and the smeared plate medium was incubated in a 37° C. bacterial incubator for 24 hours, and the number of white single colony was counted. Evaluation was carried out with the average of triplicate.
Malic acid was added to be 0.5%, 1.0%, 2.0%, respectively, to the prepared single colony of Salmonella, and the inhibitory effect on Salmonella over time was examined.

## O=C(O)CC(O)(CC(=O)O)C(=O)O [Citric Acid, citric acid]
[1]; Citric Acid Concentration 2%, Dilution Rate 1:12.5
  Avian Influenza Titer: 1.25 log 10
[1]; Citric Acid Concentration 2%, Dilution Rate 1:25
  Avian Influenza Titer: 2.00 log 10
[1]; Citric Acid Concentration 4%, Dilution Rate 1:50
  Avian Influenza Titer: 2.00 log 10
[1]; Citric Acid Concentration 6%, Dilution Rate 1:50
  Avian Influenza Titer: 2.00 log 10
[1]; Citric Acid Concentration 8%, Dilution Rate 1:50
  Avian Influenza Titer: 0.75 log 10

## O=C(O)CC(O)(CC(=O)O)C(=O)O [SAL + BROTH (CA 0.5%), citric acid]
Standard strain Listeria; 0 min
  number of Listeria bacteria: 8.62 log10 CFU/ml
Standard strain Listeria; 10 min, listed as LIS + BROTH (CA 0.5%)
  number of Listeria bacteria: 8.52 log10 CFU/ml
Standard strain Listeria; 20 min, listed as LIS + BROTH (CA 0.5%)
  number of Listeria bacteria: 8.48 log10 CFU/ml
Standard strain Listeria; 30 min, listed as LIS + BROTH (CA 0.5%)
  number of Listeria bacteria: 8.51 log10 CFU/ml
Standard strain Listeria; 60 min, listed as LIS + BROTH (CA 0.5%)
  number of Listeria bacteria: 8.39 log10 CFU/ml
Standard strain E. coli; 0 min
  number of E. coli bacteria: 8.72 log10 CFU/ml
Standard strain E. coli; 10 min, listed as EC + Broth (CA 0.5%)
  number of E. coli bacteria: 8.70 log10 CFU/ml
Standard strain E. coli; 20 min, listed as EC + Broth (CA 0.5%)
  number of E. coli bacteria: 8.64 log10 CFU/ml
Standard strain E. coli; 30 min, listed as EC + Broth (CA 0.5%)
  number of E. coli bacteria: 8.66 log10 CFU/ml
Standard strain E. coli; 60 min, listed as EC + Broth (CA 0.5%)
  number of E. coli bacteria: 8.67 log10 CFU/ml

## O=C(O)CC(O)C(=O)O (centres unmarked) [SAL + BROTH (MA 0.5%), malic acid]
[2]; 0 min
  number of Salmonella bacteria: 9.02 log10 CFU/ml
[2]; 10 min
  number of Salmonella bacteria: 9.04 log10 CFU/ml
[2]; 20 min
  number of Salmonella bacteria: 9.05 log10 CFU/ml
[2]; 30 min
  number of Salmonella bacteria: 9.04 log10 CFU/ml
[2]; 60 min
  number of Salmonella bacteria: 9.09 log10 CFU/ml
Standard strain Listeria; 0 min
  number of Listeria bacteria: 8.67 log10 CFU/ml
Standard strain Listeria; 10 min, listed as LIS + BROTH (MA 0.5%)
  number of Listeria bacteria: 8.55 log10 CFU/ml
Standard strain Listeria; 20 min, listed as LIS + BROTH (MA 0.5%)
  number of Listeria bacteria: 8.61 log10 CFU/ml
Standard strain Listeria; 30 min, listed as LIS + BROTH (MA 0.5%)
  number of Listeria bacteria: 8.56 log10 CFU/ml
Standard strain Listeria; 60 min, listed as LIS + BROTH (MA 0.5%)
  number of Listeria bacteria: 8.58 log10 CFU/ml
Standard strain E. coli; 0 min
  number of E. coli bacteria: 8.61 log10 CFU/ml
Standard strain E. coli; 10 min, listed as EC + Broth (MA 0.5%)
  number of E. coli bacteria: 8.67 log10 CFU/ml
Standard strain E. coli; 20 min, listed as EC + Broth (MA 0.5%)
  number of E. coli bacteria: 8.66 log10 CFU/ml
Standard strain E. coli; 30 min, listed as EC + Broth (MA 0.5%)
  number of E. coli bacteria: 8.86 log10 CFU/ml
Standard strain E. coli; 60 min, listed as EC + Broth (MA 0.5%)
  number of E. coli bacteria: 8.79 log10 CFU/ml

## O=C(O)CC(O)C(=O)O (centres unmarked) [SAL + BROTH (MA 2.0%), malic acid]
[2]; 0 min
  number of Salmonella bacteria: 9.02 log10 CFU/ml
[2]; 10 min
  number of Salmonella bacteria: 8.88 log10 CFU/ml
[2]; 20 min
  number of Salmonella bacteria: 8.73 log10 CFU/ml
[2]; 30 min
  number of Salmonella bacteria: 8.63 log10 CFU/ml
[2]; 60 min
  number of Salmonella bacteria: 7.50 log10 CFU/ml
Standard strain Listeria; 0 min
  number of Listeria bacteria: 8.67 log10 CFU/ml
Standard strain Listeria; 10 min, listed as LIS + BROTH(MA 2.0%)
  number of Listeria bacteria: 8.51 log10 CFU/ml
Standard strain Listeria; 20 min, listed as LIS + BROTH(MA 2.0%)
  number of Listeria bacteria: 8.62 log10 CFU/ml
Standard strain Listeria; 30 min, listed as LIS + BROTH(MA 2.0%)
  number of Listeria bacteria: 8.55 log10 CFU/ml
Standard strain Listeria; 60 min, listed as LIS + BROTH(MA 2.0%)
  number of Listeria bacteria: 8.61 log10 CFU/ml
Standard strain E. coli; 0 min
  number of E. coli bacteria: 8.61 log10 CFU/ml
Standard strain E. coli; 10 min, listed as EC + Broth (MA 2.0%)
  number of E. coli bacteria: 8.69 log10 CFU/ml
Standard strain E. coli; 20 min, listed as EC + Broth (MA 2.0%)
  number of E. coli bacteria: 8.68 log10 CFU/ml
Standard strain E. coli; 30 min, listed as EC + Broth (MA 2.0%)
  number of E. coli bacteria: 8.79 log10 CFU/ml
Standard strain E. coli; 60 min, listed as EC + Broth (MA 2.0%)
  number of E. coli bacteria: 8.63 log10 CFU/ml

## O=C(O)CC(O)(CC(=O)O)C(=O)O [SAL + BROTH (CA 1.0%), citric acid]
Standard strain Listeria; 0 min
  number of Listeria bacteria: 8.62 log10 CFU/ml
Standard strain Listeria; 10 min, listed as LIS + BROTH (CA 1.0%)
  number of Listeria bacteria: 8.47 log10 CFU/ml
Standard strain Listeria; 20 min, listed as LIS + BROTH (CA 1.0%)
  number of Listeria bacteria: 8.48 log10 CFU/ml
Standard strain Listeria; 30 min, listed as LIS + BROTH (CA 1.0%)
  number of Listeria bacteria: 8.41 log10 CFU/ml
Standard strain Listeria; 60 min, listed as LIS + BROTH (CA 1.0%)
  number of Listeria bacteria: 8.42 log10 CFU/ml
Standard strain E. coli; 0 min
  number of E. coli bacteria: 8.72 log10 CFU/ml
Standard strain E. coli; 10 min, listed as EC + Broth (CA 1.0%)
  number of E. coli bacteria: 8.71 log10 CFU/ml
Standard strain E. coli; 20 min, listed as EC + Broth (CA 1.0%)
  number of E. coli bacteria: 8.65 log10 CFU/ml
Standard strain E. coli; 30 min, listed as EC + Broth (CA 1.0%)
  number of E. coli bacteria: 8.70 log10 CFU/ml
Standard strain E. coli; 60 min, listed as EC + Broth (CA 1.0%)
  number of E. coli bacteria: 8.71 log10 CFU/ml

## O=C(O)CC(O)(CC(=O)O)C(=O)O [SAL + BROTH (CA 2.0%), citric acid]
Standard strain Listeria; 0 min
  number of Listeria bacteria: 8.62 log10 CFU/ml
Standard strain Listeria; 10 min, listed as LIS + BROTH (CA 2.0%)
  number of Listeria bacteria: 8.37 log10 CFU/ml
Standard strain Listeria; 20 min, listed as LIS + BROTH (CA 2.0%)
  number of Listeria bacteria: 8.37 log10 CFU/ml
Standard strain Listeria; 30 min, listed as LIS + BROTH (CA 2.0%)
  number of Listeria bacteria: 8.38 log10 CFU/ml
Standard strain Listeria; 60 min, listed as LIS + BROTH (CA 2.0%)
  number of Listeria bacteria: 8.40 log10 CFU/ml
Standard strain E. coli; 0 min
  number of E. coli bacteria: 8.72 log10 CFU/ml
Standard strain E. coli; 10 min, listed as EC + Broth (CA 2.0%)
  number of E. coli bacteria: 8.71 log10 CFU/ml
Standard strain E. coli; 20 min, listed as EC + Broth (CA 2.0%)
  number of E. coli bacteria: 8.67 log10 CFU/ml
Standard strain E. coli; 30 min, listed as EC + Broth (CA 2.0%)
  number of E. coli bacteria: 8.65 log10 CFU/ml
Standard strain E. coli; 60 min, listed as EC + Broth (CA 2.0%)
  number of E. coli bacteria: 8.61 log10 CFU/ml

## O=C(O)CC(O)C(=O)O (centres unmarked) [SAL + BROTH (MA 1.0%), malic acid]
[2]; 0 min
  number of Salmonella bacteria: 9.02 log10 CFU/ml
[2]; 10 min
  number of Salmonella bacteria: 9.03 log10 CFU/ml
[2]; 20 min
  number of Salmonella bacteria: 9.04 log10 CFU/ml
[2]; 30 min
  number of Salmonella bacteria: 9.04 log10 CFU/ml
[2]; 60 min
  number of Salmonella bacteria: 8.88 log10 CFU/ml
Standard strain Listeria; 0 min
  number of Listeria bacteria: 8.67 log10 CFU/ml
Standard strain Listeria; 10 min, listed as LIS + BROTH(MA 1.0%)
  number of Listeria bacteria: 8.69 log10 CFU/ml
Standard strain Listeria; 20 min, listed as LIS + BROTH(MA 1.0%)
  number of Listeria bacteria: 8.60 log10 CFU/ml
Standard strain Listeria; 30 min, listed as LIS + BROTH(MA 1.0%)
  number of Listeria bacteria: 8.60 log10 CFU/ml
Standard strain Listeria; 60 min, listed as LIS + BROTH(MA 1.0%)
  number of Listeria bacteria: 8.59 log10 CFU/ml
Standard strain E. coli; 0 min
  number of E. coli bacteria: 8.61 log10 CFU/ml
Standard strain E. coli; 10 min, listed as EC + Broth (MA 1.0%)
  number of E. coli bacteria: 8.78 log10 CFU/ml
Standard strain E. coli; 20 min, listed as EC + Broth (MA 1.0%)
  number of E. coli bacteria: 8.74 log10 CFU/ml
Standard strain E. coli; 30 min, listed as EC + Broth (MA 1.0%)
  number of E. coli bacteria: 8.77 log10 CFU/ml
Standard strain E. coli; 60 min, listed as EC + Broth (MA 1.0%)
  number of E. coli bacteria: 8.94 log10 CFU/ml
